Assay results published in US10300048B2, “Thiazolidinones as cellular anandamide uptake inhibitors and their use in the treatment of psychiatric or neurological disorders and inflammation, in particular neuroinflammation” (UNIVERSITAT BERN, priority 2014, dated 2019).
Like-named read-outs stand apart in the source and are kept apart here.

Legend:
[1] = target: CB1 receptor; conditions: literature values of reference substances; cited from earlier work
[2] = tested on: AEA cellular uptake, U937 cells; assay: [3H]-AEA cellular uptake inhibition in U937 cells; type: cell-based; conditions: Table 1, U937 cells, 100 nM AEA, read-out: AEA uptake inhibition IC50
Procedure: [^3H]-AEA Cellular Uptake
Screening for AEA cellular uptake inhibition was performed in a semi-automated procedure: Pipetting and washing steps were performed by a Biomek3000 laboratory workstation. First, required amounts of U937 cells were centrifuged at 100×g for 5 min and resuspended in RPMI (37° C.) to a final concentration of 2×10^6 cells/mL. Then, 250 μL of cell suspension (0.5×10^6 cells per sample) were transferred into AquaSil™ silanized glass vials (Chromacol 1.1-MTV) in 96-well format. After addition of 5 μL vehicle (DMSO) or compounds the cells were incubated at 37° C. for 15 min. As positive controls OMDM-2 and UCM707 were used at 10 μM in each run. The ETI-T compounds were measured at up to 7 concentrations in triplicates from 100 pM-100 μM. After pre-incubation, a mixture of 0.5 nM[ethanolamine-1-^3H]-AEA, (60 Ci/mmol) and 99.5 nM of cold AEA (final 100 nM) was added and samples were incubated at 37° C. for another 15 min. The reaction was stopped by rapid filtration over UniFilter-96 GF/C filters (PerkinElmer) pre-soaked with PBS 0.25% BSA. Cells were washed three times with 100 μL ice-cold PBS buffer containing 1% fatty acid free BSA. After drying, 45 μL MicroScint 20 scintillation cocktail (PerkinElmer, Waltham, Mass., US) was added to the wells and the plate was sealed. Radioactivity was measured by liquid scintillation counting on a PerkinElmer Wallac Trilux MicroBeta 1450 during 2 min. Non-specific binding of [^3H]AEA (100 nM) to the glass vials was never higher than 10%. IC50 values were calculated by GraphPad® by non-linear regression using the built-in log(inhibitor) vs. response-variable slope (four parameters) function.
(§1) Statistical analysis and IC50 values were determined using GraphPad® Prism 5.0 (GraphPad® Software, San Diego, Calif., US). Inhibition curves were obtained by non-linear regression using the built-in log(inhibitor) vs. response-variable slope (four parameters) function. Results were calculated as % of vehicle control of the corresponding fraction (cells, aqueous phase) if not mentioned else. In vivo results are shown in absolute values and were analyzed by a one-way ANOVA following a Tukey's multiple comparison test or student's t-test. If not indicated else the results were compared vs. vehicle (CTRL). *** P<0.001, ** P<0.01, * P<0.05, ns=not significant P>0.05.

[3] = target: FAAH (Homo sapiens (Human), UniProt O00519); assay: FAAH activity: hydrolysis of [3H]-AEA in U937 cell homogenates; type: biochemical; conditions: Table 2; U937 cell homogenate; read-out: FAAH inhibition IC50
Procedure: Hydrolysis of [^3H]-AEA by FAAH was determined as previously described in cell homogenates of U937 cells (0.18 mg protein) (Omeir et al., 1999, Biochem Biophys Res Commun, 264, 316-20; Mor et al., 2004, J Med Chem, 47, 4998-5008). Protein amounts of cell homogenates corresponded to 0.5×10^6 cells (U937), to assure best possible comparability of IC50 values as used for the AEA cellular uptake assays. URB597 was used as positive control. Protein quantification was performed using a BCA assay (Thermo Scientific). Enzyme activity was assessed by addition of vehicle or compounds in 10 μL DMSO to 490 μL homogenate in 10 mM Tris HCl, 1 mM EDTA, 0.1% (w/v) BSA fatty acid free, pH=8 and incubation for 15 min at 37° C. After, a mixture of AEA plus [ethanolamine-1-^3H]-AEA (0.5 nM) at final 100 nM was added to the homogenates and incubated for 15 min at 37° C. The reaction was stopped by addition of 1 mL ice-cold CHCl3:MeOH (1:1) followed by vigorous vortexing. Phase separation was achieved by centrifugation at 10′000×g at 4° C. for 10 min. Radioactivity of the separated aqueous phase (upper phase) containing [^3H-ethanolamine] or [^3H-glycerol] was measured by liquid scintillation counting on a Tri-Carb 2100 TR liquid scintillation analyzer after addition of 3.5 mL Ultima Gold scintillation cocktail (PerkinElmer Life Sciences). Results are expressed as hydrolysis of tritium substrate in percent of vehicle treated control. IC50 values were calculated by GraphPad®. Data are reported as means of n=3 independent experiments performed in triplicates.
as §1

Sequence of FAAH (O00519 whole entry): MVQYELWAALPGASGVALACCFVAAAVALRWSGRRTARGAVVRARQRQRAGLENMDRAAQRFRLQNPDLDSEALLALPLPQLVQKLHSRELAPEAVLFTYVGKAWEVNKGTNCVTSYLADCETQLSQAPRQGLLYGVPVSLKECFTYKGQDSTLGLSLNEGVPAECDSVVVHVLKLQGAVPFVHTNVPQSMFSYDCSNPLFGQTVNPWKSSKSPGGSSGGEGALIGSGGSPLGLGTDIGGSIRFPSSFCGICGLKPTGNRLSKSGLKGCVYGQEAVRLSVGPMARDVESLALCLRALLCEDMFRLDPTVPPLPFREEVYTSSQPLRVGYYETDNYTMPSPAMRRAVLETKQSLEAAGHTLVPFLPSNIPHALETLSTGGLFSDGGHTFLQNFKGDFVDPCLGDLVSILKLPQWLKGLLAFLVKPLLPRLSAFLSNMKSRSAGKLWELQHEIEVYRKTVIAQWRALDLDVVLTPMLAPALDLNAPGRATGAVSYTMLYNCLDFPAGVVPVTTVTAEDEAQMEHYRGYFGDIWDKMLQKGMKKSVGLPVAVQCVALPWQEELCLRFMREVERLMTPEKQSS

Compound | Ki [1] [µM] | IC50 ([2]; Homo sapiens, U-937) [µM] | IC50 [3] [µM] | IC50 [2] [µM]
CCCCCCCC/C=C\CCCCCCCC(=O)N[C@@H](CO)c1ccc(O)cc1 [OMDM-2, (R)—N-(1-(4-hydroxyphenyl)-2-hydroxyethyl)oleamide, reference compound] | 5.1 | 3.9 | – | –
CCCCC/C=C\C/C=C\C/C=C\C/C=C\CCCC(=O)NCc1ccoc1 [UCM707, N-(3-furanylmethyl)-(5Z,8Z,11Z,14Z)-eicosatetraenamide, reference compound] | > 1 | – | 8.3 | 1.9
